Experimental data: the PolyMetriX glass transition set
± gives the standard deviation of the reports.

SMILES | glass transition temperature [°C]
*Oc1ccc(OC(=O)c2ccc(C(*)=O)cc2)cc1C1CC2CCC1C2 (repeat unit) | 267.00
*/C=C/C1CC(*)C(C#N)(CC)C1 (repeat unit) | 134.00
*c1ccc(Oc2ccc(N3C(=O)c4ccc(Oc5ccc(Oc6ccc7c(c6)C(=O)N(*)C7=O)cc5)cc4C3=O)cc2)cc1 (repeat unit) | 241.00 ± 12
*Oc1ccc(OC(=O)c2ccc(-c3ccc(C(*)=O)cc3)cc2-c2ccccc2)cc1 (repeat unit) | 140.00
*Oc1ccc(/N=C/CCC/C=N/c2ccc(OC(=O)NCCCCCCNC(*)=O)cc2)cc1 (repeat unit) | 72.00
*CC(*)(C)C(=O)OCCCCCCn1c2ccccc2c2ccccc21 (repeat unit) | 73.00
*Nc1ccc(NC(=O)c2cc(-c3ccc(C(=O)OC)c(C(*)=O)c3)ccc2C(=O)OC)cc1 (repeat unit) | 234.20
*c1ccc(Cc2ccc(-n3nccc3-c3ccc(-c4ccnn4*)cc3)cc2)cc1 (repeat unit) | 202.00
*c1ccc(-c2ccc(-c3ccc(-c4ccc(-c5ccc(*)n5CCCCCCCCCCCC)s4)s3)s2)s1 (repeat unit) | 54.00
*CC(*)(F)C(=O)OCC(F)(F)C(F)(F)C(F)(F)C(F)F (repeat unit) | 60.00
*CC(*)OC(C)CC (repeat unit) [Poly(vinyl sec-butyl ether) ] | -22 ± 3
*Nc1ccc(NC(=O)c2ccc(NC(=O)CCCCCCCCC(=O)Nc3ccc(C(*)=O)cc3)cc2)cc1C(=O)OCCCCCCCCCCCC (repeat unit) | 228.50
*O[Si](C)(C)c1c(F)c(F)c(F)c([Si](*)(C)C)c1F (repeat unit) | -28.50
*C/C=C/C[Si](*)(C)c1ccccc1 (repeat unit) | -1.00
*CCCCCCCCCCCCOC(=O)NCc1ccc(CNC(=O)O*)cc1 (repeat unit) | 45.00
*CC(C)(CC)CO* (repeat unit) | -47.00
*CCN(*)C(=O)Cc1ccc(C(F)(F)F)cc1 (repeat unit) | 75.00
*CC(*)C(=O)c1ccc(C(C)C)cc1 (repeat unit) | 62.50
*CC(*)c1ccc([Si](C)(C)C)cc1 (repeat unit) | 136.00
*CC(*)c1ccccc1COCCCC (repeat unit) | 67.00
*CCCCCCNC(=O)c1c(Cl)c(Cl)c(C(=O)N*)c(Cl)c1Cl (repeat unit) | 282.00
*[Se]c1c(Cl)c(Cl)c(*)c(Cl)c1Cl (repeat unit) | 104.00

SMILES | glass transition temperature [°C]
*O[Si](*)(C)CCCOc1ccc(C(=O)Oc2ccc(-c3ccc(OC(=O)c4cc(OCC(C)CC)c(OCC(C)CC)c(OCC(C)CC)c4)cc3)cc2)cc1 (repeat unit) | 60.00
*CC(*)C(=O)OCC(F)(F)C(F)(F)OC(F)(F)F (repeat unit) | -55.00
*O[Si](C)(C)O[Si](C)(C)O[Si](C)(C)C#Cc1ccc(C#C[Si](*)(C)C)cc1 (repeat unit) | 96.00
*CCCCCCCCCCOc1c(OC)cc(/C=C2\CCC/C(=C\c3cc(OC)c(O*)c(OC)c3)C2=O)cc1OC (repeat unit) | 49.00
*c1ccc(CC(=O)Nc2cccc(NC(=O)Cc3ccc(-c4sc(*)c(-c5ccccc5)c4-c4ccccc4)cc3)c2)cc1 (repeat unit) | 228.00
*Oc1ccc(CNC(=O)c2ccc(C(=O)NCc3ccc(OC4COC5C(*)COC45)cc3)cc2)cc1 (repeat unit) | 122.00
*O[Si](*)(C)CCCC(=O)OC (repeat unit) | -72.00
*C(=O)Nc1ccc(Oc2ccc(-c3ccc(Oc4ccc(NC(=O)c5ccc6c(c5)C(=O)N(c5cccc(N7C(=O)c8ccc(*)cc8C7=O)c5)C6=O)cc4)cc3)cc2)cc1 (repeat unit) | 292.00
*c1ccc2c(c1)C(=O)N(c1cccc(Oc3ccc(S(=O)(=O)c4ccc(Oc5cccc(N6C(=O)c7ccc(C(*)(C(F)(F)F)C(F)(F)F)cc7C6=O)c5)cc4)cc3)c1)C2=O (repeat unit) | 209.50
*OC(*)C (repeat unit) | -19.50
*CC(CCl)(CCl)CO* (repeat unit) [Poly(oxy-2,2-dichloromethyltrimethylene) ] | -8 ± 10
*C(=O)c1ccc2nc(-c3ccccc3)c(-c3ccc(-c4nc5cc(*)ccc5nc4-c4ccccc4)cc3)nc2c1 (repeat unit) | 325.00
*c1cccc(N2C(=O)c3ccc(Oc4c(C)cc(-c5cc(C)c(Oc6ccc7c(c6)C(=O)N(*)C7=O)c(C)c5)cc4C)cc3C2=O)c1 (repeat unit) | 295.00
*Oc1ccc(C(c2ccc(OC(=O)c3ccc(OCCCCCCCCCCOc4ccc(C(*)=O)cc4)cc3)cc2)(C(F)(F)F)C(F)(F)F)cc1 (repeat unit) | 89.00
*Oc1ccc(/C=C2\CCC/C(=C\c3ccc(OC(=O)CCCCCCCCC(*)=O)c(OC)c3)C2=O)cc1OC (repeat unit) | 48.1
*CC(O)COc1ccc(C(C)(C)c2ccc(OCC(O)COc3cccc(O*)c3)cc2)cc1 (repeat unit) | 83.00
*Oc1ccc(OC(=O)c2ccc(OCCCCCCOc3ccc(C(*)=O)cc3)cc2)cc1S(=O)(=O)c1ccccc1 (repeat unit) | 105.50
*c1ccc(-c2ccc3c(c2)C(CCCCCCCC)(CCCCCCCC)c2cc(*)ccc2-3)cc1 (repeat unit) | 81.00
*CC(*)C(=O)OCF (repeat unit) | 15.00
*c1cc(C)c(/N=C/c2ccc(OCc3ccccc3COc3ccc(/C=N/c4cc(C)c(N5C(=O)c6ccc7c8ccc9c%10c(ccc(c%11ccc(c6c7%11)C5=O)c%108)C(=O)N(*)C9=O)cc4C)cc3OC)c(OC)c2)cc1C (repeat unit) | 143.00
*CCOCCOC(=O)C(CCCCCCCCC)C(=O)O* (repeat unit) | -59.00
*c1ccc(-c2ccc(N(*)c3cc(C(F)(F)F)cc(C(F)(F)F)c3)cc2)cc1 (repeat unit) | 209.00

SMILES | glass transition temperature [°C]
*C(=O)c1cc(C(=O)c2ccc3c(c2)C(=O)N(c2ccc(Oc4ccc(N5C(=O)c6ccc(*)cc6C5=O)cc4)cc2)C3=O)cc(-c2ccccc2)c1 (repeat unit) | 258.50
*C(=O)c1ccc2c(c1)C(=O)N(c1cccc(Nc3ncnc(Nc4cccc(N5C(=O)c6ccc(*)cc6C5=O)c4)n3)c1)C2=O (repeat unit) | 290.00
*c1ccc(Oc2ccc(S(=O)(=O)c3ccc(C)cc3)cc2)c(N2C(=O)c3ccc(-c4ccc5c(c4)C(=O)N(*)C5=O)cc3C2=O)c1 (repeat unit) | 281.00
*c1ccc2c(c1)C(=O)N(c1c(C)cc(-c3cc(C)c(N4C(=O)c5ccc(C(*)(C(F)(F)F)C(F)(F)F)cc5C4=O)c(C)c3)cc1C)C2=O (repeat unit) | 370.50
*c1ccc2c(c1)C(=O)N(c1c(C)cc(C(c3ccccc3)(c3cc(C)c(N4C(=O)c5ccc(C(*)(C(F)(F)F)C(F)(F)F)cc5C4=O)c(C(C)C)c3)C(F)(F)F)cc1C(C)C)C2=O (repeat unit) | 289.00
*CC(O)COc1c(Cl)cc(C(C)(C)c2cc(Cl)c(OCC(O)COc3ccc(C(C)(C)c4ccc(O*)cc4)cc3)c(Cl)c2)cc1Cl (repeat unit) | 100.00
*CC(OCCCC)C(C(=O)OC)C(*)C(=O)OC (repeat unit) | 32.50
*c1ccc(Oc2ccc(C(c3ccc(Oc4ccc(N5C(=O)c6ccc(Oc7ccc8c(c7)C(=O)N(*)C8=O)cc6C5=O)cc4)cc3)(C(F)(F)F)C(F)(F)F)cc2)cc1 (repeat unit) | 264.00
*c1cccc(Oc2ccc(C(c3ccc(Oc4cccc(-n5c(=O)c6cc7c(=O)n(*)c(=O)c7cc6c5=O)c4)cc3)(C(F)(F)F)C(F)(F)F)cc2)c1 (repeat unit) | 226.50 ± 12
*c1cc(CC(=O)OCCN(CC)c2ccc(/N=N/c3ccc([N+](=O)[O-])cc3)cc2)c(*)s1 (repeat unit) | 102.00
*C(=O)NCCN(CCNC(=O)c1ccc2c(c1)C(=O)N(c1ccc(Oc3ccc(N4C(=O)c5ccc(*)cc5C4=O)cc3)cc1)C2=O)c1ccc(/C=C/c2ccc([N+](=O)[O-])cc2)cc1 (repeat unit) | 224.00
*Oc1ccc(C2(c3ccc(OC(=O)CCCCC(*)=O)cc3)c3ccccc3-c3ccccc32)cc1 (repeat unit) | 166.00
*CC(*)n1cncn1 (repeat unit) | 165.00
*c1ccc(-c2ccc([Si](C)(C)[Si](*)(C)C)s2)s1 (repeat unit) | 45.00
*CCCCCCNC(=O)c1cc(NC(=O)c2ccc(NC(=O)C(CC(C)C)N3C(=O)c4ccccc4C3=O)cc2)cc(C(=O)N*)c1 (repeat unit) | 200.00
*Oc1ccc(S(=O)(=O)c2ccc(Oc3ccc(NC(=O)c4cc(C(=O)Nc5ccc(*)cc5)cc(C(C)(C)C)c4)cc3)cc2)cc1 (repeat unit) | 232.50
*C(=O)c1ccc2c(c1)C(=O)N(c1ccc(N(c3ccccc3)c3ccc(N4C(=O)c5ccc(*)cc5C4=O)cc3)cc1)C2=O (repeat unit) | 270.00
*Oc1ccc(C(C)(C)c2ccc(C(C)(C)c3ccc(Oc4ccc(C(=O)Nc5cccc(NC(=O)c6ccc(*)cc6)c5)cc4)cc3)cc2)cc1 (repeat unit) | 173.00
*CCCCCOc1ccc(-c2ccc(O*)c3ccccc23)c2ccccc12 (repeat unit) | 151.00
*/C=C/CC(C*)(C(=O)OC12CC3CC(CC(C3)C1)C2)C(=O)OC12CC3CC(CC(C3)C1)C2 (repeat unit) | 34.00
*OC1CCCCC1* (repeat unit) | 68.50
*CC(COC(=O)CCCCCCCCCCN1C(=O)C2C3C=CC(C3)C2C1=O)O* (repeat unit) | -31.00
